Source: ChEMBL document CHEMBL1150517, “The structural feature of S1 subsite of carboxypeptidase A” (Bioorg Med Chem Lett, 1991)

What follows are compounds tested against T1, Carboxypeptidase A1 (Bos taurus, UniProt P00730) (assay: Binding affinity against carboxypeptidase A using hippurylphenylalanine as substrate).
T1 sequence (P00730 whole entry): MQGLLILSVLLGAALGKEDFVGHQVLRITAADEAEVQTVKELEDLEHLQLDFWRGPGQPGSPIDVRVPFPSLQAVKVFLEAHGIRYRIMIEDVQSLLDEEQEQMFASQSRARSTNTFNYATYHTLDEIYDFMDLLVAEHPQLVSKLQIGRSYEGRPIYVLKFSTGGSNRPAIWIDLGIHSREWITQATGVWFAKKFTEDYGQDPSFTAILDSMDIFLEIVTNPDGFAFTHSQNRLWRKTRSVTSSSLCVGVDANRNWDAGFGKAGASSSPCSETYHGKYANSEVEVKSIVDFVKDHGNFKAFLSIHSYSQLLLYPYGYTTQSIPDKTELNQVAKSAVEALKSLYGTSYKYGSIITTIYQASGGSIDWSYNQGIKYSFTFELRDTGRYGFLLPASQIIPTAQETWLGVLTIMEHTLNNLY

| Compound | Ki [nM] |
| --- | --- |
| O=C(O)C(CS)Cc1ccc(F)c(F)c1 (configuration not stated) | 250 |
| Cc1ccc(CC(CS)C(=O)O)cc1 (configuration not stated) | 112 |
| O=C(O)C(CS)Cc1ccccc1F (configuration not stated) | 45 |
| Cc1cccc(CC(CS)C(=O)O)c1 (configuration not stated) | 170 |
| Cc1ccc(CC(CS)C(=O)O)cc1C (configuration not stated) | 492 |
| CC(C)c1ccc(CC(CS)C(=O)O)cc1 (configuration not stated) | 4500 |
| O=C(O)C(CS)Cc1cccc2ccccc12 (configuration not stated) | 480 |
| Cc1ccccc1CC(CS)C(=O)O (configuration not stated) | 120 |
| O=C(O)C(CS)CC1CCCCC1 (configuration not stated) | 2350 |

Next, values leading:

| Ki [nM] | Compound |
| --- | --- |
| 7700 | CC(C)(C)c1ccc(CC(CS)C(=O)O)cc1 (configuration not stated) |
| 2300 | O=C(O)C(CS)Cc1c(F)c(F)c(F)c(F)c1F (configuration not stated) |
| 37 | O=C(O)C(CS)Cc1ccc(F)cc1 (configuration not stated) |
| 35 | O=C(O)C(CS)Cc1cccc(F)c1 (configuration not stated) |
| 590 | O=C(O)C(CS)Cc1cc(F)c(F)c(F)c1 (configuration not stated) |
| 200 | O=C(O)C(CS)Cc1ccc2ccccc2c1 (configuration not stated) |
| 11 | O=C(O)C(CS)Cc1ccccc1 (configuration not stated) |
| 350 | Cc1cccc(CC(CS)C(=O)O)c1C (configuration not stated) |
